Reference: ChEMBL document CHEMBL1124385, “A new series of tricyclic (aryloximino)propanolamines displaying very high selective beta 2-blocking properties” (J Med Chem, 1989)

Tests used:
[1] = target: Beta-2 adrenergic receptor (Cavia porcellus, UniProt Q8K4Z4); test: Beta-2 adrenergic receptor blocking was assessed from 50% inhibition of the isoproterenol submaximal response on isolated Guinea pig trachea(IT)
[2] = target: Beta-1 adrenergic receptor (Cavia porcellus, UniProt B0FL73); test: Beta-1 adrenergic receptor blocking was assessed from 50% inhibition of the isoproterenol submaximal response on isolated Guinea pig atria(IA)
[3] = Selectivity, ratio of IC50 on guinea pig atria and guinea pig trachea

Sequence of Beta-1 adrenergic receptor (B0FL73 whole entry): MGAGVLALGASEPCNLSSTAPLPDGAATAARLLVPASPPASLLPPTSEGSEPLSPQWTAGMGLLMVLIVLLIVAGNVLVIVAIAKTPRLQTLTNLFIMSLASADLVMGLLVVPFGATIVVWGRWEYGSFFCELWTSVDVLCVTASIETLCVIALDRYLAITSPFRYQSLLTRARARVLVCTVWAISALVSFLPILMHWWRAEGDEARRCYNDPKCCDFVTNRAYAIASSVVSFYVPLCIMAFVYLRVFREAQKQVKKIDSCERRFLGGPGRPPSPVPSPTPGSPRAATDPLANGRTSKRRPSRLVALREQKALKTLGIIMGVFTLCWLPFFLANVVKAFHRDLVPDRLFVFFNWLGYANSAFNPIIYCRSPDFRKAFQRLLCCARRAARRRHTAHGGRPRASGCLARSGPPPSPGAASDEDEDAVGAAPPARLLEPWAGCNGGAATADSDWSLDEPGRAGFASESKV
Sequence of Beta-2 adrenergic receptor (Q8K4Z4 whole entry): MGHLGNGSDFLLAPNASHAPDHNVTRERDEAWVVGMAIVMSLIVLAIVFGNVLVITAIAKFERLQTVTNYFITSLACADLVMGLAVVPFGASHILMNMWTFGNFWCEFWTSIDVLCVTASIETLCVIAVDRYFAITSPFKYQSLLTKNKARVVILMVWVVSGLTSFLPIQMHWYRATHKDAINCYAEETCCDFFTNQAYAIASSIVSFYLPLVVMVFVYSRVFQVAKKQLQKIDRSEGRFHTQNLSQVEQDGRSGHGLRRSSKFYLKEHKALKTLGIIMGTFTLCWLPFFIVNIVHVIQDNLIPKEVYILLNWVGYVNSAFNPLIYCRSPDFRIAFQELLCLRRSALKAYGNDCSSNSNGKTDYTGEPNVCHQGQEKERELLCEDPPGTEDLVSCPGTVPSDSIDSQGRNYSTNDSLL

| Structure (SMILES) | IC50 [1] [µM] | IC50 [2] [µM] | Ratio [3] |
| --- | --- | --- | --- |
| COC12CCCCCC1c1ccccc1/C2=N/OCC(O)CNC(C)(C)C (stereo unspecified) | 0.44 | 0.16 | – |
| COC12CCCCC1c1ccccc1/C2=N/OCC(O)CNC(C)(C)C (stereo unspecified) | 0.035 | 12 | 33 |
| COC12CCCCCC1c1ccccc1/C2=N/OCC(O)CNC(C)C (stereo unspecified) | 0.035 | 3 | – |
| COc1cc(CCNCC(O)CO/N=C2/c3ccccc3C3CCCCCCCCCC23OC)cc(OC)c1 (stereo unspecified) | > 10 | > 10 | – |
| COc1cc(CCNCC(O)CO/N=C2/c3ccccc3C3CCCCCC23OC)cc(OC)c1 (stereo unspecified) | > 10 | 13 | – |
| COc1cc(CCNCC(O)CO/N=C2/c3cc(F)ccc3C3CCCCC23OC)cc(OC)c1 (stereo unspecified) | > 10 | > 10 | – |
| COc1cc(CCNCC(O)CO/N=C2/c3ccccc3C3CCCCC23OC)cc(OC)c1 (stereo unspecified) | > 10 | > 10 | – |
| COC12CCCCC1c1ccc(F)cc1/C2=N/OCC(O)CNC(C)(C)C (stereo unspecified) | 0.45 | 0.83 | – |

The next lines start with the values.

| IC50 [1] [µM] | IC50 [2] [µM] | Ratio [3] | Structure (SMILES) |
| --- | --- | --- | --- |
| > 10 | > 10 | – | CC(C)NCC(O)CO/N=C1/c2ccccc2C2CCCCCC12OCCO (stereo unspecified) |
| > 10 | 0.89 | – | CC(C)NCC(O)CO/N=C1/c2ccccc2C2CCCCCC12O (stereo unspecified) |
| > 10 | > 10 | – | CC(C)NCC(O)CO/N=C1/c2ccccc2C2CCCCC12OCCO (stereo unspecified) |
| 0.3 | 1.2 | – | COC12CCCCC1c1ccccc1/C2=N/OCC(O)CNC(C)C (stereo unspecified) |
| 3.1 | 0.85 | 0.28 | CC(C)(C)NCC(O)CO/N=C1/c2ccccc2C2CCCCC12OCCO (stereo unspecified) |
| 0.79 | 19 | – | COC12CCCCC1c1ccc(F)cc1/C2=N/OCC(O)CNC(C)C (stereo unspecified) |
| 31 | 2.8 | 0.09 | CC(C)(C)NCC(O)CO/N=C1/c2ccccc2C2CCCCC12O (stereo unspecified) |
| 7.9 | > 1 | – | CC(C)(C)NCC(O)CO/N=C1/c2ccccc2C2CCCCCC12OCCO (stereo unspecified) |
| > 10 | > 10 | – | CC(C)NCC(O)CO/N=C1/c2ccccc2C2CCCCC12O (stereo unspecified) |
| 0.44 | 0.34 | – | CC(C)(C)NCC(O)CO/N=C1/c2ccccc2C2CCCCCC12O (stereo unspecified) |
| > 10 | > 10 | – | COC12CCCCCCCCCC1c1ccccc1/C2=N/OCC(O)CNC(C)C (stereo unspecified) |
